Assay results published in patent US11793841B2, “Microbial compositions and methods for treating type 2 diabetes, obesity, and metabolic syndrome” (Solarea Bio, Inc., priority 2017, dated 2023).

Test system: diet induced obese (DIO) C57BL/6J mice
Test: Oral glucose tolerance test (OGTT) in diet induced obese mice
Type: in vivo
Details: monotherapy; by 60 minutes
Experimental: After 4 weeks of dosing mice with test article, an OGTT was performed. Here, mice were fasted for 6 hours after which fasting blood glucose levels were measured via tail vein blood using a glucometer (One-Touch Ultra II). Mice were then dosed with an oral glucose bolus (2 g/kg) via oral gavage, and blood glucose was measured at 20, 40, 60, and 120 minutes post gavage.

CN(C)C(=N)N=C(N)N [metformin]
blood glucose after glucose challenge: remained elevated
